Experimental data from US7786095B2, “Amphiphilic macrocyclic derivatives and their analogues” (University College Dublin, priority 2000, dated 2010).
“And” between values parts separate entries of the source, which are not always exact repeats. Equal entries are not always repeated.

Legend:
Format in all cases: physicochemical
[1] = Dynamic light scattering of cyclodextrin vesicles dispersed in water by sonication; settings: sonicated 2 hours (HE-SC12 room temperature, HE-SC16 50° C.)
Protocol: (§1) The amphiphilic cyclodextrins are dispersed in water by sonication of a thin film (cast by slow rotary evaporation of a solution of the cyclodextrins in chloroform) in a sonication bath. HE-SC12 is sonicated for 2 hours at room temperature and HE-SC16 is sonicated for 2 hours at 50° C. Dynamic light scattering indicates the presence of vesicles with an average diameter of 170 nm. Vesicles of cyclodextrins of 50-300 nm diameter are also observed by transmission electron microscopy using uranyl acetate as a negative staining agent (FIG. 1). Upon prolonged sonication (9 hours) of a solution of HE-SC12, a monodisperse solution of spherical vesicles with an average diameter of 60 nm is obtained (FIG. 2). Thus, the particle size can be directed by sonication time, in order to obtain a size suitable for specific molecular inclusion or specific therapeutic use.

[2] = Spontaneous release of carboxyfluorescein from gel-filtered vesicles over time; settings: room temperature, after 3 days
Protocol: (§2) Vesicles of heptakis(6-dodecylthio-2-oligoethylenoxy)-β-cyclodextrin and […] were prepared by sonication in a buffered solution of carboxyfluorescein (CF).
(ii) CF entrapped in the vesicles was separated from free (non-entrapped) CF by gel filtration using Sephadex G25. […] The peak of entrapped CF coincided with the elution of vesicles (FIG. 4). This confirms the existence of an aqueous inner compartment within the vesicles. Furthermore, as anticipated, the amount of entrapped CF in cyclodextrin vesicles correlated with the cyclodextrin concentration.
(iii) The spontaneous release of CF from vesicles of HE-SC16 (separated from free CF by gel filtration) was measured over time. At room temperature, the leakage of CF was limited, and the vesicles retained more than 75% of CF after 3 days (FIG. 5).

[3] = Differential scanning calorimetry of a 10% (w/w) dispersion in water
Protocol: Heptakis(6-hexadecylthio-2-oligoethylenoxy)-β-cyclodextrin was analysed using differential scanning calorimetry. […] The transition occurred around 48-49° C. and the enthalpy of transition amounted to 59 kJ/mol cyclodextrin. This typical Lβ-L[…] transition was confirmed in a measurement of the fluorescence polarisation of diphenylhexatriene in the presence of a vesicle solution by a standard method (R. R. C. New, Liposomes: a practical approach, Oxford University Press, 1990). Thus, vesicles of the amphiphilic cyclodextrins undergo thermotropic phase transitions which depend on molecular structure, and which can direct important parameters such as vesicle stability and bilayer permeability.

[4] = Carboxyfluorescein entrapment in vesicles: fluorescence increase on Triton X-100 solubilisation; settings: 1000-fold dilution, 0.1% w/w Triton X-100, two independent preparations
Protocol: as §2
(i) Small aliquots of the solutions of the cyclodextrin vesicles (5-20 mM) were diluted 1000-fold, resulting in immediate dilution of the non-entrapped CF with concomitant intense CF fluorescence, which was measured. The fluorescence of entrapped CF is negligible due to self-quenching. Next, the vesicles in the diluted solution were solubilised by the addition of 0.1% w/w of the detergent Triton X-100, leading to release and dilution of entrapped CF, with concomitant increase of CF fluorescence, which was measured. In this concentration range (ca. […]). The fluorescence intensity of CF correlates linearly with its concentration, and the incremental change of fluorescence upon addition of Triton X-100 is a direct measure of the percentage of entrapped volume of the vesicles relative to the total volume of the solution. The entrapped volume amounted to 7.7+/−1.9% and 11.4+/−2.7% for two independent preparations of HE-SC16; and to 5.0+/−2.4% and 7.2+/−5.3% for two independent preparations of HE-SC12.

[5] = Transmission electron microscopy of cyclodextrin vesicles (uranyl acetate negative staining); settings: prolonged sonication (9 hours), monodisperse solution
Protocol: as §1

Row | average diameter of vesicles (dynamic light scattering) [1] [nm] | CF retained by vesicles [2] | endothermic phase transition temperature (DSC heating scan) [3] | enthalpy of transition [3] [kJ/mol cyclodextrin] | entrapped volume of the vesicles relative to the total volume of the solution [4] | average diameter of spherical vesicles after prolonged sonication [5] [nm] | Substance
1 | 170 | more than 75% | 48-49 °C | 59 | 7.7+/−1.9% and 11.4+/−2.7% |  | heptakis(6-hexadecylthio-2-oligoethylenoxy)-β-cyclodextrin [HE-SC16]
2 | 170 |  |  |  | 5.0+/−2.4% and 7.2+/−5.3% | 60 | heptakis(6-dodecylthio-2-oligoethylenoxy)-β-cyclodextrin [HE-SC12]
